In patent US20260209215A1, “GLYCINE DERIVATIVES WITH P2X4 RECEPTOR-BLOCKING ACTIVITY AS DIAGNOSTICS AND FOR THE TREATMENT OF PAIN, INFLAMMATION, CANCER, AND OTHER P2X4 RECEPTOR-RELATED DISEASES” (RHEINISCHE-FRIEDRICH-WILHELMS-UNIVERSITÄT BONN, priority 2022, published 2026):

target: T1, P2X4 receptor (Homo sapiens, UniProt Q99571); assay: Measurement of Ca2+ influx in transfected 1321N1 astrocytoma cells (P2X4 inhibitory potency); format: cell-based; conditions: agonist-mediated Ca2+ influx, FLUO-4, 1321N1 astrocytoma cells; antagonists added 30 min before agonist
T1 construct: expressed in transfected cells; host or cells: 1321N1 astrocytoma cells, retroviral vector pQCXIN, G418 selection, monoclones
T1 sequence (Q99571 1-388): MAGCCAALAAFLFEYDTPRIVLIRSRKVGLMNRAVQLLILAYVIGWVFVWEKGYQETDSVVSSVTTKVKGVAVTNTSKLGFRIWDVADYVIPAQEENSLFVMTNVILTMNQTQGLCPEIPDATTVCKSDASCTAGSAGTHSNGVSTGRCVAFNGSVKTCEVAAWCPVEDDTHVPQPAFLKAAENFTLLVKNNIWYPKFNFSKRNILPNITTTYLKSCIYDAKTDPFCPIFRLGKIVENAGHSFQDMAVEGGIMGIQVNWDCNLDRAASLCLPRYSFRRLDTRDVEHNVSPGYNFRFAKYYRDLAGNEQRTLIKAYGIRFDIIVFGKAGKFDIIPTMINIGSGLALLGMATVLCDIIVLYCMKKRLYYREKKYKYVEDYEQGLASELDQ
Source text: The rat, mouse, and human P2X4 DNA, respectively, were cloned into the retroviral vector pQCXIN. 1321N1 Astrocytoma cells were transfected with the DNA using a retroviral system as described previously. In brief, GP+envAM12 packaging cells were first transiently co-transfected with a retroviral vector to generate the retrovirus and with a vesicular stomatitis virus G protein (VSV-G) to pseudotype the virus and to increase their infection efficiency. The viruses containing the rat, mouse or human P2X4 receptor sequence were then used to create a stable astrocytoma cell line. P2X4 receptor-expressing cells were selected with G418 ([…]).
The selection of monoclones for rat and human P2X4 receptors was performed using the limited dilution method by plating the cells at very low cell densities (1 cell clone per well in 96-well plates). Cells were counted, and then several dilutions were made to obtain a concentration of […]. We subsequently added 100 µL of the diluted cell suspension into each well expecting to obtain on average 1 cell per well. After a few days the wells that contained single clones were labeled and transferred into 24 well plates. More than 20 clones were selected for each cell line and characterized in calcium influx assay.
Measurement of Ca^2+ influx in transfected 1321N1 astrocytoma cells
P2X receptor function was determined on the basis of agonist-mediated increases in cytosolic Ca^2+ concentration. The fluorescent Ca^2+chelating dye FLUO-4 was used as an indicator of the relative levels of intracellular Ca^2+ in a 96-well format using a fluorescence imaging plate reader (Novostar, BMG, Germany). Cells were grown to confluence in 96-well black-walled tissue culture plates and loaded with FLUO-4 AM ([…]) in Hank's balanced salt solution (HBSS, containing 10 mM HEPES, pH 7.3, and 1% Pluronic® F127) for 1 h at 23° C. After incubation, the loaded cells were washed with the same buffer to remove extracellular FLUO-4 AM. Compound solutions were prepared in HBSS (containing 20 mM HEPES, pH 7.3) or DMSO depending on their solubility. […] Fluorescence intensity was measured at 520 nm for 30 s at 0.4 s intervals. Buffer or test compounds were injected sequentially into separate wells using the automatic pipetting device. At least three independent experiments were performed in triplicate or duplicate. Antagonists were added 30 min before the addition of agonists. The assays were performed in a final volume of 200 μL. Compounds were tested at 7-8 different concentrations spanning three orders of magnitude of concentrations. Statistical significances were calculated using the unpaired two-tailed t-test.

IC50 [nM] | Compound
0.1 to 19 | Cc1nsc(-c2ccc(N3CCCC3)c(NCC(=O)N3CCc4c(OCC(C)(C)O)cccc43)c2)n1 [Example 24, 1-(4-(2-hydroxy-2-methylpropoxy)indolin-1-yl)-2-((5-(3-methyl-1,2,4-thiadiazol-5-yl)-2-(pyrrolidin-1-yl)phenyl)-amino)ethan-1-one]
0.1 to 19 | Cc1noc(-c2ccc(C)c(NCC(=O)N3CCc4c(N5CCC(O)C5)cccc43)c2)n1 (centres unmarked) [Example 25, 1-(4-(3-hydroxy-pyrrolidin-1-yl)indolin-1-yl)-2-((2-methyl-5-(3-methyl-1,2,4-oxadiazol-5-yl)phenyl)amino)ethan-1-one]
0.1 to 19 | CCc1nsc(-c2ccc(C)c(NCC(=O)N3CCc4c3cccc4S(=O)(=O)NC)c2)n1 [Example 26, 1-((5-(3-ethyl-1,2,4-thiadiazol-5-yl)-2-methylphenyl)glycyl)-N-methylindoline-N-sulfonamide]
0.1 to 19 | CCc1nsc(-c2ccc(C)c(NCC(=O)N3CCc4c(N5CC(C)OC(C)C5)cccc43)c2)n1 (centres unmarked) [Example 27, 1-(4-(2,6-dimethylmorpholino)indolin-1-yl)-2-((5-(3-ethyl-1,2,4-thiadiazol-5-yl)-2-methylphenyl)amino) ethan-1-one]
0.1 to 19 | Cc1ccc(-c2ccc(C)c(NCC(=O)N3CCc4c(CO)cccc43)c2)o1 [Example 28, 1-(4-(hydroxymethyl)indolin-1-yl)-2-((2-methyl-5-(5-methylfuran-2-yl)phenyl)amino)ethan-1-one]
20 to 39 | Cc1nsc(-c2ccc(C)c(NCC(=O)N3CCc4c(C(C)O)cccc43)c2)n1 (centres unmarked) [Example 29, 1-(4-(1-hydroxyethyl)indolin-1-yl)-2-((2-methyl-5-(3-methyl-1,2,4-thiadiazol-5-yl)phenyl)amino)ethan-1-one]
20 to 39 | Cc1nsc(-c2ccc(C)c(NCC(=O)N3CCc4c(OCCOCCO)cccc43)c2)n1 [Example 31, 1-(4-(2-(2-hydroxyethoxy)-ethoxy)indolin-1-yl)-2-((2-methyl-5-(3-methyl-1,2,4-thiadiazol-5-yl)phenyl)-amino)ethan-1-one]
0.1 to 19 | Cc1nsc(-c2ccc(C)c(NCC(=O)N3CCc4c(-c5cccnc5)cccc43)c2)n1 [Example 32, 2-((2-methyl-5-(3-methyl-1,2,4-thiadiazol-5-yl)phenyl)amino)-1-(4-(pyridin-3-yl)indolin-1-yl)ethan-1-one]
20 to 39 | Cc1nsc(-c2ccc(C)c(NCC(=O)N3CCc4c(C(O)C(F)(F)F)cccc43)c2)n1 (centres unmarked) [Example 33, 2-((2-methyl-5-(3-methyl-1,2,4-thiadiazol-5-yl)phenyl)amino)-1-(4-(2,2,2-trifluoro-1-hydroxyethyl)indolin-1-yl)ethan-1-one]
20 to 39 | COc1cccc2c1CCN2C(=O)CNc1cc(-c2nc(C)ns2)ccc1F [Example 34, 2-((2-fluoro-5-(3-methyl-1,2,4-thiadiazol-5-yl)phenyl)amino)-1-(4-methoxyindolin-1-yl)ethan-1-one]
20 to 39 | CCc1nsc(-c2ccc(C)c(NCC(=O)N3CCc4c3cccc4-n3ccnc3)c2)n1 [Example 35, 1-(4-(1H-imidazol-1-yl)indolin-1-yl)-2-((5-(3-ethyl-1,2,4-thiadiazol-5-yl)-2-methyl-phenyl)amino)ethan-1-one]
20 to 39 | Cc1ccc(-c2ccc(C)c(NCC(=O)N3CCc4c3cccc4N3C4CCC3CC(O)C4)c2)o1 (centres unmarked) [Example 36, 1-(4-(3-hydroxy-8-azabicyclo[3.2.1]octan-8-yl)indolin-1-yl)-2-((2-methyl-5-(5-methylfuran-2-yl)phenyl)amino)ethan-1-one]
20 to 39 | CC(=O)c1cccc2c1CCN2C(=O)CNc1cc(-c2nc(C)ns2)ccc1C [Example 37, 1-(4-acetylindolin-1-yl)-2-((2-methyl-5-(3-methyl-1,2,4-thiadiazol-5-yl)phenyl)amino)ethan-1-one]
20 to 39 | Cc1ccc(-c2nc(C3CC3)ns2)cc1NCC(=O)N1CCc2c(OCC(C)(C)O)cccc21 [Example 38, 2-((5-(3-cyclopropyl-1,2,4-thiadiazol-5-yl)-2-methylphenyl)amino)-1-(4-(2-hydroxy-2-methylpropoxy)-indolin-1-yl)ethan-1-one]
20 to 39 | O=C(CNc1cc(-c2nc(Cl)ns2)ccc1Cl)N1CCc2c(O)cccc21 [Example 39, 2-((2-chloro-5-(3-chloro-1,2,4-thiadiazol-5-yl)phenyl)amino)-1-(4-hydroxyindolin-1-yl) ethan-1-one]
20 to 39 | Cc1ccc(-c2nc(C(F)F)ns2)cc1NCC(=O)N1CCc2c1cccc2C(C)(C)O [Example 40, 2-((5-(3-(difluoromethyl)-1,2,4-thiadiazol-5-yl)-2-methylphenyl)amino)-1-(4-(2-hydroxypropan-2-yl)indolin-1-yl) ethan-1-one]
20 to 39 | Cc1noc(-c2ccc(F)c(NCC(=O)N3CCc4c(C(O)C(F)(F)F)cccc43)c2)n1 (centres unmarked) [Example 41, 2-((2-fluoro-5-(3-methyl-1,2,4-oxadiazol-5-yl)phenyl)amino)-1-(4-(2,2,2-trifluoro-1-hydroxyethyl)indolin-1-yl)ethan-1-one]
20 to 39 | COc1ccc2c(n1)CCN2C(=O)CNc1cc(-c2nc(C)ns2)ccc1C [Example 42, 1-(5-methoxy-2,3-dihydro-1H-pyrrolo[3,2-b]pyridin-1-yl)-2-((2-methyl-5-(3-methyl-1,2,4-thiadiazol-5-yl)phenyl)-amino)ethan-1-one]
20 to 39 | Cc1ccc(-c2ccc(F)c(NCC(=O)N3CCc4c(OCC(C)(C)O)cccc43)c2)o1 [Example 43, 2-((2-fluoro-5-(5-methylfuran-2-yl)phenyl)amino)-1-(4-(2-hydroxy-2-methylpropoxy)-indolin-1-yl)ethan-1-one]
20 to 39 | Cc1nsc(-c2ccc(C)c(NCC(=O)N3CCc4c(NCC(C)(C)O)cccc43)c2)n1 [Example 44, 1-(4-((2-hydroxy-2-methylpropyl)amino)indolin-1-yl)-2-((2-methyl-5-(3-methyl-1,2,4-thiadiazol-5-yl)phenyl)-amino)ethan-1-one]
20 to 39 | CCc1nsc(-c2ccc(C)c(NCC(=O)N3CCc4c(C(=O)N5CCN(C)CC5)cccc43)c2)n1 [Example 45, 2-((5-(3-ethyl-1,2,4-thiadiazol-5-yl)-2-methylphenyl)amino)-1-(4-(4-methylpiperazine-1-carbonyl)indolin-1-yl) ethan-1-one]
20 to 39 | Cc1nsc(-c2ccc(C)c(NCC(=O)N3CCc4c(NS(C)(=O)=O)cccc43)c2)n1 [Example 46, N-(1-((2-methyl-5-(3-methyl-1,2,4-thiadiazol-5-yl)phenyl)glycyl)indolin-4-yl)methanesulfonamide]
20 to 39 | Cc1nsc(-c2ccc(C)c(NCC(=O)N3CCc4c3cccc4-n3ccnc3)c2)n1 [Example 48, 1-(4-(1H-imidazol-1-yl)indolin-1-yl)-2-((2-methyl-5-(3-methyl-1,2,4-thiadiazol-5-yl)phenyl)amino)ethan-1-one]
40 to 69 | Cc1noc(-c2ccc(C)c(NCC(=O)N3CCc4c(OCC(C)(C)O)cccc43)c2)n1 [Example 49, 1-(4-(2-hydroxy-2-methylpropoxy)indolin-1-yl)-2-((2-methyl-5-(3-methyl-1,2,4-oxadiazol-5-yl)phenyl)amino)ethan-1-one]

Compound | IC50 [nM]
Cc1nsc(-c2ccc(C)c(NCC(=O)N3CCc4c(OCCC(C)(C)O)cccc43)c2)n1 [Example 30, 1-(4-(3-hydroxy-3-methylbutoxy)indolin-1-yl)-2-((2-methyl-5-(3-methyl-1,2,4-thiadiazol-5-yl)phenyl)amino)ethan-1-one] | 0.1 to 19
Cc1noc(-c2ccc(C)c(NCC(=O)N3CCc4c(OCCC(C)(C)O)cccc43)c2)n1 [Example 47, 1-(4-(3-hydroxy-3-methylbutoxy)indolin-1-yl)-2-((2-methyl-5-(3-methyl-1,2,4-oxadiazol-5-yl)phenyl)amino)ethan-1-one] | 20 to 39
